Laboratory results reported in article PMC12769565, “Design, synthesis and biological activity of glycoconjugated ADAMTS5 exosite inhibitors: applications in osteoarthritis and ovarian cancer models” (Scientific Reports, 2025).
Converted amounts (≈) assume the structure as drawn.

What was measured:
HEK293T cells = assay: Cell viability MTS assay; type: cell-based, human; details: 100 µM; 72 h; vs DMSO control
Protocol: (§1) Cell viability was assessed using CellTiter® 96 Aqueous One Solution Cell Proliferation Assay (Promega, G3582) following the manufacturer’s protocol. The assay is based on the reduction of [3-(4,5-dimethylthiazol-2-yl)-5-(3-carboxymethoxyphenyl)-2-(4-sulfophenyl)-2 H-tetrazolium] (MTS) and phenazine ethosulfate into formazan. Compounds 2 and 4b, GM6001 (Merck, 364206) (10–100 µM), or DMSO control were incubated in 48-well Nunc™ plates (Thermo Fisher Scientific,150687) with HEK293T cells, human non-OA chondrocytes, porcine cartilage explants, or human OA cartilage explants for 72 h. At least 3 independent experiments were carried out with 3 technical replicates each. For experiments involving human samples, independent experiments were carried out on 3 different donors. Absorbance at 490 nm was measured on a SpectraMax i3x Multi-Mode Platform (Molecular Devices). Cell viability was normalized to DMSO controls.

[1] = Solubility determination in PBS by UV-Vis absorbance at 284 nm; type: physicochemical; details: PBS buffer, aqueous buffer, kinetic from dmso stock, pH 7.4, room temperature, read-out: upper solubility limit
Protocol: The solubility of compounds 4b and 2 was assessed in PBS at pH 7.4 and room temperature. Stock solutions of the compounds (10 mM in DMSO) were diluted in PBS buffer to achieve final concentrations between 1,000 µM − 12.5 µM. Two-hundred microliters of the proper compound solutions in PBS buffer were added in a 96-well plate, and the absorbance was measured at 284 nm using a SPECTROstar Nano UV-Vis spectrophotometer (220–1,000 nm, Ortenberg, Germany). Analyses were performed in triplicate, and the mean value was calculated for each sample.

[2] = system: human OA cartilage explants; assay: Aggrecan fragments released from human OA cartilage (anti-AGEG immunoblot); type: cell-based; details: 48 h, anti-AGEG neoepitope, read-out: inhibition of aggrecan degradation
Protocol: Samples were separated by SDS-PAGE under reducing conditions (5% β-mercaptoethanol) on BOLT, 4–12%, Bis-Tris Gels (Invitrogen) in MES Running Buffer (NuPAGE). Proteins were transferred onto a nitrocellulose membrane using Trans-Blot Turbo™ Transfer System (BioRad), at 25 V, 2.5 A for 30 min. Membranes were blocked with 3% BSA/PBS for 1 h at room temperature. Aggrecan fragments generated by ADAMTS cleavage at E^392-A^393[8] or E^1953-A^1954[68] were detected using mouse monoclonal anti-ARGSV antibody (BC3, Life Technologies, MA3-16888, 4 µg/ml) or polyclonal anti-AGEG neoepitope antibody (serum, 1:200 dilution)[12],[33], respectively, followed by the appropriate horseradish peroxidase (HRP)-conjugated secondary antibodies (polyclonal Goat Anti-Mouse P0447, 0.1 ng/µl and polyclonal Goat Anti-Rabbit, P0448, 0.03 ng/µl, both from Agilent Technologies LDA UK Ltd). All antibodies were diluted in 0.5% bovine serum albumin (BSA)/PBS. Washes between each step were carried out in triplicate, for 15 min each, with PBS-Tween (0.1%). Following addition of the chemiluminescent HRP substrate (Millipore, WBKL30500) membranes were imaged using Bio-Rad Chemidoc Touch Imaging System. Analysis was carried out using BioRad ImageLab software (version 5.2.1) using sequential exposures to avoid saturation artifacts. Figures for unprocessed blots are included in Supplementary information Fig. S4 and Fig. S5 with highlighted regions (in red boxes) corresponding to the data reported in the main manuscript figures.
Human OA cartilage was obtained from Clatterbridge Hospital, Wirral, UK, following total knee arthroplasty procedures with informed patient consent in full compliance with national and institutional ethical requirements, the United Kingdom Human Tissue Act, and the Declaration of Helsinki (REC 18/WA/0344). […]
Explants were incubated in 0.2 ml of fresh DMEM containing compound 2 (10 or 100 µM) or 4b (10 µM) for 48 h. […] Proteins were precipitated using ice-cold acetone, dissolved in the SDS-sampling buffer and then analyzed by immunoblot using anti-AGEG aggrecan neoepitope antibody as before.

[3] = system: human non-OA chondrocytes; assay: Cell viability MTS assay; type: cell-based; details: 72 h, vs DMSO control
Protocol: Non-OA human chondrocytes were isolated from knee cartilage tissues obtained from the Stanmore BioBank, Institute of Orthopaedics, Royal National Orthopaedic Hospital, Stanmore, UK, from 3 donors following informed consent and approval by the Royal Veterinary College Ethics and Welfare Committee (Institutional approval URN 2012 0048 H) as before.
as §1

CCC(C)N(Cc1cn(CCCO[C@@H]2O[C@H](CO)[C@@H](O[C@@H]3O[C@H](CO)[C@H](O)[C@H](O)[C@H]3O)[C@H](O)[C@H]2NC(C)=O)nn1)S(=O)(=O)c1ccc(-c2ccccc2)cc1 (stereo partly drawn) [compound 2, N-((2R,3R,4R,5 S,6R)-2-(3-(4-((N-(sec-butyl)-[1,1’-biphenyl]-4-sulfonamido)methyl)-1H-1,2,3-triazol-1-yl)propoxy)-4-hydroxy-6-(hydroxymethyl)-5-(((2 S,3R,4 S,5R,6R)-3,4,5-trihydroxy-6-(hydroxymethyl)tetrahydro-2 H-pyran-2-yl)oxy)tetrahydro-2 H-pyran-3-yl)acetamide]
inhibition of cell viability (HEK293T cells): Neither 2, nor the broad-spectrum zinc-chelating metalloproteinase inhibitor GM6001[40] had an effect on cell viability | solubility [1]: 300 µM (≈ 238 µg/mL) | inhibition at 10 µM ([2]; 10 µM): 63% | inhibition at 100 µM ([2]; 100 µM): 85% | inhibition of cell viability ([3]; 50 µM): No significant effect | inhibition of cell viability ([3]; 100 µM): No significant effect
